Data taken from patent US20090123389A1, “Methods for modulating Th17 cell development in the treatment and prevention of cellulite” (priority 2007, published 2009).

Columns and labels:
[1] = tested on: T cell-mediated inflammation; details: oxazolone-induced; cited from earlier work
[2] = tested on: Xenopus feeding stage tadpoles; test: Toxicity in Xenopus feeding stage tadpoles; details: 400 nM HF, treatment for 7 days
[3] = tested on: fibroblasts; test: Protein synthesis, proliferation and death of cultured fibroblasts; assay type: cell-based
[4] = tested on: primary T cells; assay type: cell-based
Procedure: The non-specific cytoxicity of HF in both normal and transformed T-cells at high doses was evaluated. Anti-CD3/anti-CD28 activated primary T cells were harvested 6 days after activation and cultured in the presence of IL-2 with or without HF (100 nM). As a positive control, some T cells were cultured without IL-2 to induce apoptosis (FIG. 3A). Jurkat T cells, a transformed T cell leukemia line, were cultured in complete medium with or without HF (100 nM) as indicated (FIG. 3B). Both primary and Jurkat T cells were cultured for 30 hours and programmed cell death, i.e. apoptosis, was determined by Annexin V staining and propidium iodide (PI) uptake and cells were analyzed by flow cytometry. The percent of apoptotic T cells at each time point was plotted and was defined as Annexin V^+ PI^−. […] In further experiments, titrating amounts of HF were added to primary T cells and apoptosis was determine as above at the indicated time points. At 100 nM HF, but not 30 nM or lower, generalized T-cell apoptosis was observed (FIG. 3C).

[5] = tested on: T-cells and fibroblasts; test: Non-specific effects at high concentrations in vitro; assay type: cell-based; details: about 80 nM HF, primary T-cells
[6] = tested on: human memory T cells (CD4+ CD45RO+); test: IL-17 and IFNγ expression by human memory T cells co-cultured with monocytes; assay type: cell-based; details: 100 nM HF, 6 days
Procedure: FIG. 10F is an illustration depicting purified primary human memory T cells (CD4^+ CD45RO^+) activated by anti-CD3/anti-CD28 coated beads in co-culture with CD14^+ monocytes and treated with DMSO, 100 nM HF or 100 nM MAZ1310. T cells were expanded for 6 days and intracellular cytokine expression was determined following restimulation with PMA plus ionomycin in the presence of brefeldin A.
Human T cell isolation and activation: Resting CD4^+ T cells were isolated from PBMC of healthy human donors using Dynal CD4 Positive Isolation Kit (Invitrogen, Carlsbad, Calif.) as previously described (M. Sundrud et al., Blood 106, 3440, 2005). CD4^+ cells were further purified to obtain memory T cells by staining with PE-conjugated anti-human CD45RO-PE antibodies (BD Biosciences), and sorting on a FACSAria cytometer (BD Biosciences). Following purification, cells were greater than 99% CD4^+ CD45RO^+. […] T cells were expanded in the presence HF or MAZ1310 as indicated for 6 days and intracellular cytokine expression was determined by intracellular staining.
Detection of cytokine production: Cytokines secreted into media supernatant were measured using the mouse Th1/Th2 cytometric bead array (CBA, BD Pharmingen) in accordance with manufacturers instructions. […]

[7] = tested on: RORγt; test: RORγt expression (real-time PCR) and RORγt retroviral transduction; assay type: cell-based, mouse; details: 10 nM HF
Procedure: T cells were harvested at the indicated times following activation, RNA was isolated and quantitative real-time PCR was performed using RORγt-specific primers and taqman probe. RORγt expression was normalized to Gapdh levels, and the data are presented as fold changes relative to naïve T cells.
Infected T cells were expanded and restimulated on day 4 for intracellular staining. MIG- and MIG.RORγt-transduced cells were gated based on GFP fluorescence.
FIG. 16C is a graph depicting the percent of Th17 cells (IL-17^+ IFNγ^−) in cultures of MIG-transduced (black bars) or MIG.RORγt-transduced (white bars) T cells as determined by intracellular cytokine staining were normalized to DMSO-treated cultures. The data are presented as mean values±SD on duplicate samples. […]
Quantitative real-time PCR: T cells were activated as described above, collected at the indicated times and pellets were flash-frozen in liquid nitrogen. […] RORγt expression was determined after reverse transcription using the message sensor kit (Ambion, Austin, Tex.) per manufacturers instructions and taqman primers and probe as described elsewhere (I. Ivanov, et al., Cell 126, 1121, 2006). Sybrgreen quantitative real-time PCR was performed on T cell RNA samples following reverse transcription via SuperScript II first-strand cDNA synthesis kit (Invitrogen, Carlsbad, Calif.). […]

O=C(CC1NCCCC1O)Cn1cnc2cc(Br)c(Cl)cc2c1=O (racemic) [HF, 7-bromo-6-chloro-3-[3-(3-hydroxy-2-piperidinyl)-2-oxopropyl]-4(3H)-quinazolinone]
T cell-mediated inflammation (delayed-type hypersensitivity) [1]: inhibits this T cell-mediated inflammation
toxic effects in tadpoles [2]: does not have detectable toxic effects
concentrations that inhibit protein synthesis and cell proliferation of fibroblasts in culture [3]: over 80 nM
doses that do not cause death of cultured fibroblasts ([3]; over a period of 5 days): up to 500 nM
HF concentration at which generalized T-cell apoptosis was not observed [4]: ≤ 30 nM
HF concentration at which generalized T-cell apoptosis was observed [4]: 100 nM
T-cell proliferation at high concentrations [5]: generalized inhibition
IFNγ expression by human T cells [6]: essentially unaffected
percentage of human T cells expressing IL-17 and amount of IL-17 produced [6]: greatly reduced
upregulation of RORγt or RORγ during Th17 differentiation [7]: did not interfere
